Results: patent US20240240226A1, “FLUOROGENIC ASSAY FOR RAPID SCREENING OF BACTERIAL BETA-LACTAMASE ACTIVITY” (The Board of Trustees of the Leland Stanford Junior …, priority 2021, published 2024)

Assays:
[1] = target: T1, horseradish peroxidase (HRP) (Armoracia rusticana, UniProt P00433); assay: Amplex red fluorescence turn-on with HRP and H2O2; type: biochemical; conditions: HRP 1 unit/mL, H2O2 1 uM, 10 μM AR in PBS, room temperature, 5 min
T1 sequence (P00433 31-338): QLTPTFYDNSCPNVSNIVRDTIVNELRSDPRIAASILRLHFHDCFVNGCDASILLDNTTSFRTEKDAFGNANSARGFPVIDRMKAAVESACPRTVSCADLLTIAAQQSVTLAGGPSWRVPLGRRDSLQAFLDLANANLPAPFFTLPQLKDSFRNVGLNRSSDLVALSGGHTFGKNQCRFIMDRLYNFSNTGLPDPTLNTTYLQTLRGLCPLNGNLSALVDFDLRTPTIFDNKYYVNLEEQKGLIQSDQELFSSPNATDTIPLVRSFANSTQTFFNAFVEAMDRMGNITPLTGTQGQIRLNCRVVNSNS
Procedure: FIG. 6 illustrates the fluorescence spectra of CDA and Amplex red. a) Fluorescent emission spectra of PBS, CDA, and AR (10 μM probes in PBS; excitation, 525 nm). b) Fluorescent emission spectra of CDA treated with esterase (1 μg/mL), TEM-1 Bla (100 nM) and H2O2 (1 mM) at room temperature for 8 hours. c) Fluorescent emission spectra of AR and AR treated with HRP and H2O2 at room temperature for 5 min (10 μM AR in PBS, HRP 1 unit/mL, H2O2 1 uM) (excitation, 525 nm). A.U. indicates arbitrary units.
The synthesis of CDA is outlined in Scheme 1 (FIG. 28). DARR was prepared from resazurin sodium salt through reduction and acetylation (Han et al., Chemistry (2016) 11: 818-822) and conjugated to the oxidized cephalosporin chloride with a self-immolative linker 4-mercaptobenzyl alcohol to afford CDA after reduction and deprotection. When incubated with a recombinant class A cephalosporin-hydrolyzing β-lactamase TEM-1 (TEM-1 Bla, FIGS. 7 and 8), esterase, and hydrogen peroxide (H2O2), CDA generated approximately 1200-fold fluorescence turn-on (FIGS. 1b and 6b).

[2] = test system: esterase; assay: DARR response to esterase and H2O2; type: biochemical; conditions: esterase 1 μg/mL, different concentrations of H2O2, room temperature
Procedure: FIG. 11 illustrates that esterase sensitizes DARR in response to H2O2. a) Structure of DARR and its hydrolysis by esterase and oxidation into fluorescent resorufin by H2O2. b) Fluorescence enhancement of DARR treated with esterase (1 μg/mL) and different concentrations of H2O2 at room temperature. Data were collected on a Tecan Safire microplate reader with excitation at 570 nm and emission at 600 nm. A.U. indicates arbitrary units.
As oxidation is the essential step in converting β-lactamase/esterase processed CDA to resorufin, the stability of CDA was evaluated in different concentrations of H2O2 (FIG. 2a). […] The sulfur center of CDA was also stable in H2O2 (1 mM) (FIG. 9).

[3] = pH=8; cited from earlier work

For `CC(=O)N1c2ccc(O)cc2Oc2cc(O)ccc21` [Amplex red, 10-Acetyl-3,7-dihydroxyphenoxazine], the fluorescence turn-on [1] was 413 fold.
With `CC(=O)Oc1ccc2c(c1)Oc1cc(OC(C)=O)ccc1N2` [DARR, 10H-phenoxazine-3,7-diyl diacetate] the response to esterase [2] was “fast response to esterase”.
In the case of `O=c1ccc2nc3ccc(O)cc3oc-2c1` [resorufin], the “fluorescence quantum yield ϕ” value [3] is listed as 0.75.
